Measured values as given in patent US12156523B2 (priority 2017, dated 2024).

Key:
Pyricularia oryzae [1] = test: whole plant or invertebrate; type: in vivo; details: soil, read-out: Control value (number of lesions at the second leaf)
Pyricularia oryzae [2] = test: whole plant or invertebrate; type: in vivo; details: foliar, read-out: Control value (number of lesions at the second leaf)

SMILES | pest or weed control at 10 µg/mL (Pyricularia oryzae [1]) [%] | pest or weed control at 200 ppm (Pyricularia oryzae [2]) [%] | pest or weed control at 25 ppm (Pyricularia oryzae [2]) [%]
O=C(Oc1cccc2ccccc12)c1cc(F)nc(F)c1 [Example 1-202] | ≥ 80 | ≥ 80 | –
CCOc1cccc(NC(=O)c2cc(F)nc(F)c2F)c1 [Example 1-38] | – | – | ≥ 80
COc1cccc(OC(=O)c2cc(F)nc(F)c2)c1 [Example 1-187] | ≥ 80 | ≥ 80 | –
O=C(OCc1cccc(Cl)c1)c1cc(F)nc(F)c1F [Example 1-105] | ≥ 80 | ≥ 80 | –
COc1ccccc1OC(=O)c1cc(F)nc(F)c1F [Example 1-103] | ≥ 80 | ≥ 80 | –
CC(=O)Oc1ccccc1COC(=O)c1cc(F)nc(F)c1F [Example 1-102] | ≥ 80 | ≥ 80 | –
O=C(NC(=O)c1cc(F)nc(F)c1F)c1ccccc1 [Example 1-93] | ≥ 80 | ≥ 80 | –
O=C(Nc1ccncc1)c1cc(F)nc(F)c1 [Example 1-172] | – | ≥ 80 | ≥ 80
O=C(Nc1cccc(C(F)(F)F)c1)c1cc(F)nc(F)c1 [Example 1-191] | ≥ 80 | ≥ 80 | –
CC(C)c1ccccc1NC(=O)c1cc(F)nc(F)c1 [Example 1-177] | – | ≥ 80 | –
CC(C)Oc1cccc(NC(=O)c2cc(F)nc(F)c2F)c1 [Example 1-41] | – | – | ≥ 80
O=C(OC1CCCCC1)c1cc(F)nc(F)c1 [Example 1-205] | ≥ 80 | – | –
CC(C)Oc1cccc(N(C)C(=O)c2cc(F)nc(F)c2F)c1 [Example 1-1] | ≥ 80 | – | –
O=C(Nc1cccc(Oc2ccccc2)c1)c1cc(F)nc(F)c1F [Example 1-47] | ≥ 80 | – | –
O=C(Nc1nc2ccccc2s1)c1cc(F)nc(F)c1 [Example 1-194] | ≥ 80 | – | –
O=C(Oc1ccc(Cl)cc1)c1cc(F)nc(F)c1F [Example 1-107] | ≥ 80 | – | –
O=C(Nc1ccc([N+](=O)[O-])cc1)c1cc(F)nc(F)c1F [Example 1-67] | ≥ 80 | – | –
O=C(Nc1ccc(F)c(F)c1)c1cc(F)nc(F)c1F [Example 1-21] | ≥ 80 | – | –
CC(C)(C)c1ccc(NC(=O)c2cc(F)nc(F)c2F)cc1 [Example 1-71] | ≥ 80 | – | –
O=C(Nc1ccc(F)cc1)c1cc(F)nc(F)c1 [Example 1-201] | ≥ 80 | – | –
O=C(Oc1ccccc1)c1cc(F)nc(F)c1F [Example 1-129] | – | ≥ 80 | –
CC(NC(=O)c1cc(F)nc(F)c1F)c1ccc(Cl)cc1 (centres unmarked) [Example 1-84] | ≥ 80 | – | –
O=C(Oc1ccc([N+](=O)[O-])cc1)c1cc(F)nc(F)c1 [Example 1-203] | ≥ 80 | – | –

SMILES | pest or weed control at 10 µg/mL (Pyricularia oryzae [1]) [%] | pest or weed control at 200 ppm (Pyricularia oryzae [2]) [%] | pest or weed control at 25 ppm (Pyricularia oryzae [2]) [%]
Cc1ccc(COC(=O)c2cc(F)nc(F)c2F)cc1 [Example 1-110] | ≥ 80 | – | –
Cc1cc(C)cc(NC(=O)c2cc(F)nc(F)c2F)c1 [Example 1-26] | ≥ 80 | – | –
O=C(Oc1ccccc1)c1cc(F)nc(F)c1 [Example 1-218] | ≥ 80 | – | –
CCOC(=O)c1ccnc(C(F)(F)F)c1 [Example 1-147] | ≥ 80 | – | –
O=C(Nc1c(F)c(F)c(C(F)(F)F)c(F)c1F)c1cc(F)nc(F)c1F [Example 1-4] | ≥ 80 | – | –
O=C(Nc1ccccc1)c1ccnc(C(F)(F)F)c1 [Example 1-146] | ≥ 80 | – | –
CN(C(=O)c1cc(F)nc(F)c1F)c1ccccc1 [Example 1-2] | ≥ 80 | – | –
O=C(Nc1nc[nH]n1)c1cc(F)nc(F)c1F [Example 1-51] | ≥ 80 | – | –
Cn1cccc1C(=O)c1cc(F)nc(F)c1F [Example 2-2] | ≥ 80 | – | –
Cc1cc(NC(=O)c2cc(F)nc(F)c2F)no1 [Example 1-73] | ≥ 80 | – | –
Cc1ccccc1NC(=O)c1cc(F)nc(F)c1F [Example 1-14] | ≥ 80 | – | –
O=C(NCc1ccccc1)c1cc(NC(=O)c2cc(F)nc(F)c2F)ccc1Cl [Example 1-99] | ≥ 80 | – | –
COc1ccc(COC(=O)c2cc(F)nc(F)c2F)cc1 [Example 1-109] | ≥ 80 | – | –
O=C(Nc1ncccn1)c1cc(F)nc(F)c1F [Example 1-17] | ≥ 80 | – | –
O=C(Nc1cnccn1)c1cc(F)nc(F)c1F [Example 1-15] | ≥ 80 | – | –
Cc1ccc(NC(=O)c2cc(F)nc(F)c2F)cc1Br [Example 1-28] | ≥ 80 | – | –
Cc1ccc(OC(=O)c2cc(F)nc(F)c2F)cc1 [Example 1-111] | ≥ 80 | – | –
CCCCCCCCOC(=O)c1cc(F)nc(F)c1F [Example 1-127] | ≥ 80 | – | –
COc1ccc(NC(=O)c2cc(F)nc(F)c2F)cc1 [Example 1-61] | ≥ 80 | – | –
Cc1ccccc1OC(=O)c1cc(F)nc(F)c1 [Example 1-208] | ≥ 80 | – | –
COC(=O)c1cc(F)nc(F)c1 [Example 1-189] | ≥ 80 | – | –
O=C(Nc1ccc(Oc2ccccc2)cc1)c1cc(F)nc(F)c1F [Example 1-68] | ≥ 80 | – | –
O=C(Oc1cccc(F)c1)c1cc(F)nc(F)c1 [Example 1-207] | ≥ 80 | – | –

SMILES | pest or weed control at 10 µg/mL (Pyricularia oryzae [1]) [%] | pest or weed control at 200 ppm (Pyricularia oryzae [2]) [%] | pest or weed control at 25 ppm (Pyricularia oryzae [2]) [%]
O=C(OC/C=C/COC(=O)c1cc(F)nc(F)c1F)c1cc(F)nc(F)c1F [Example 1-152] | ≥ 80 | – | –
CC(C)(C)Oc1ccc(NC(=O)c2cc(F)nc(F)c2F)cc1 [Example 1-70] | ≥ 80 | – | –
COc1ccccc1NC(=O)c1cc(F)nc(F)c1 [Example 1-131] | – | ≥ 80 | –
Cc1ccc(NC(=O)c2cc(F)nc(F)c2F)cc1[N+](=O)[O-] [Example 1-64] | ≥ 80 | – | –
O=C(Nc1ccccn1)c1cc(F)nc(F)c1F [Example 1-16] | ≥ 80 | – | –
O=C(Nc1cccc(Cl)c1Cl)c1cc(F)nc(F)c1F [Example 1-5] | ≥ 80 | – | –
CCOC(=O)c1cccc(NC(=O)c2cc(F)nc(F)c2F)c1 [Example 1-37] | ≥ 80 | – | –
Cc1ccc(NC(=O)c2cc(F)nc(F)c2F)cc1C(F)(F)F [Example 1-65] | ≥ 80 | – | –
O=C(Nc1cccc(Cc2ccccc2)c1)c1cc(F)nc(F)c1F [Example 1-27] | ≥ 80 | – | –
Fc1cc(C2=NCCO2)c(F)c(F)n1 [Example 4-2] | ≥ 80 | – | –
O=C(Oc1ccccc1F)c1cc(F)nc(F)c1 [Example 1-211] | ≥ 80 | – | –
O=C(OCc1ccccc1)c1cc(F)nc(F)c1F [Example 1-114] | ≥ 80 | – | –
N#Cc1ccc(OC(=O)c2cc(F)nc(F)c2F)cc1 [Example 1-108] | ≥ 80 | – | –
O=C(c1cc(F)nc(F)c1F)N1CCc2ccccc21 [Example 2-4] | ≥ 80 | – | –
O=C(NC(CO)c1ccccc1)c1cc(F)nc(F)c1F (centres unmarked) [Example 1-81] | ≥ 80 | – | –
O=C(OCc1ccccc1Cl)c1cc(F)nc(F)c1F [Example 1-100] | ≥ 80 | – | –
CCCOC(=O)c1cc(F)nc(F)c1 [Example 1-184] | ≥ 80 | – | –
CC(C)OC(=O)c1cc(F)nc(F)c1F [Example 1-118] | ≥ 80 | – | –
CCCCCCOC(=O)c1cc(F)nc(F)c1 [Example 1-213] | ≥ 80 | – | –
Cc1cnc(NC(=O)c2cc(F)nc(F)c2F)s1 [Example 1-74] | ≥ 80 | – | –
O=C(OCC(F)(F)F)c1cc(F)nc(F)c1F [Example 1-120] | ≥ 80 | – | –
CC(NC(=O)c1cc(F)nc(F)c1F)c1ccccc1 (centres unmarked) [Example 1-85] | ≥ 80 | – | –
Cc1cc(NC(=O)c2cc(F)nc(F)c2F)ccc1F [Example 1-58] | ≥ 80 | – | –

SMILES | pest or weed control at 10 µg/mL (Pyricularia oryzae [1]) [%] | pest or weed control at 200 ppm (Pyricularia oryzae [2]) [%] | pest or weed control at 25 ppm (Pyricularia oryzae [2]) [%]
O=C(OC/C=C\COC(=O)c1cc(F)nc(F)c1F)c1cc(F)nc(F)c1F [Example 1-151] | ≥ 80 | – | –
O=C(Nc1cccc(OC(F)(F)F)c1)c1cc(F)nc(F)c1F [Example 1-52] | ≥ 80 | – | –
O=C(Oc1ccc([N+](=O)[O-])cc1)c1cc(F)nc(F)c1F [Example 1-112] | ≥ 80 | – | –
CC(NC(=O)c1cc(F)nc(F)c1)c1ccc(Cl)cc1 (centres unmarked) [Example 1-141] | ≥ 80 | – | –
CSc1cccc(NC(=O)c2cc(F)nc(F)c2)c1 [Example 1-192] | ≥ 80 | – | –
O=C(OCC=C(Cl)Cl)c1cc(F)nc(F)c1F [Example 1-122] | ≥ 80 | – | –
Cc1ccc(NC(=O)c2cc(F)nc(F)c2F)cc1F [Example 1-39] | ≥ 80 | – | –
COc1ccc(NC(=O)c2cc(F)nc(F)c2)cc1 [Example 1-138] | – | ≥ 80 | –
CCOC(=O)COC(=O)c1cc(F)nc(F)c1F [Example 1-125] | ≥ 80 | – | –
O=C(NCc1ccccc1)c1cc(F)nc(F)c1 [Example 1-140] | ≥ 80 | – | –
CC(OC(=O)c1cc(F)nc(F)c1F)C(F)(F)F (centres unmarked) [Example 1-115] | ≥ 80 | – | –
N#CCNC(=O)c1cc(F)nc(F)c1F [Example 1-91] | ≥ 80 | – | –
CCOc1ccc(NC(=O)c2cc(F)nc(F)c2F)cc1 [Example 1-57] | ≥ 80 | – | –
O=C(Oc1ccccc1Cl)c1cc(F)nc(F)c1 [Example 1-209] | ≥ 80 | – | –
COc1cc(NC(=O)c2cc(F)nc(F)c2F)cc(OC)c1OC [Example 1-20] | ≥ 80 | – | –
CCOC(=O)c1ccc(NC(=O)c2cc(F)nc(F)c2F)cc1 [Example 1-56] | ≥ 80 | – | –
CC(C)(C)Oc1cccc(NC(=O)c2cc(F)nc(F)c2F)c1 [Example 1-50] | ≥ 80 | – | –
Fc1cc(C2=NCCCO2)c(F)c(F)n1 [Example 4-3] | ≥ 80 | – | –
CC(=O)OCc1cc(F)nc(F)c1F [Example 3-1] | ≥ 80 | – | –
O=C(Nc1ccc(Cl)cc1)c1cc(F)nc(F)c1 [Example 1-153] | ≥ 80 | – | –
CCCNC(=O)c1cc(F)nc(F)c1F [Example 1-88] | ≥ 80 | – | –
